Data taken from patent publication US20260327224A1, “SUBSTITUTED PYRIDOTRIAZOLE COMPOUND, AND PREPARATION METHOD THEREFOR AND USE THEREOF” (ORIGIANT PHARMACEUTICAL CO., LTD., priority 2023, published 2026).

test system: HT-29 cells (colon cancer cells); assay: In vitro assay for protection of HT-29 cells from necroptosis (TNFα/Smac mimetic/Z-VAD-FMK, CCK-8); assay type: cell-based; details: Homo sapiens, Protective Activity Against Necroptosis, TNFα/Smac mimetic/Z-VAD-FMK induced, 24 h
Text: Z′=1−3(SDmin+SDmax)/(AVEmax−AVEmin) • wherein: • Min is the positive control Data, and Max is the negative control DMSO Data. • SD is the standard deviation, and AVE is the average. In Vitro Assay for Protection of HT-29 Cells from Necroptosis:
1) Experimental Materials
DMEM medium was purchased from Gibco; penicillin-streptomycin was purchased from Hyclone; TNFα was purchased from Peprotech; Smac mimetic and Z-VAD-FMK were purchased from Selleck; and CCK-8 was purchased from Medchem Express.
HT-29 cells (colon cancer cells) were cultured in DMEM+10% FBS+penicillin/streptomycin. For the experiment, HT-29 cells in the logarithmic phase were collected and seeded into 96-well plates at a specific density (typically 8×10^3 cells/well for adherent cells). The cells were cultured overnight in an incubator at 37° C. with 5% CO2. On the following day, the test compound was diluted with culture medium to the corresponding concentrations and added into the 96-well plate, with 3 replicate wells for each sample. A solvent control group and a blank control group containing only culture medium were set simultaneously. The spiked cells were induced with a combination of TNFα/Smac mimetic/Z-VAD-FMK for 24 h. Subsequently, 10 μL of CCK8 solution was added to each well, and the cells were incubated in an incubator for 1-3 h. Absorbance was measured at […] using a microplate reader, and the cell necrosis protection rate of the drug was calculated using the following formula:
Cell necrosis protection rate=[(X−C0)/(C−C0)]×100% • where C, C0, and X represent the average absorbance values of the solvent control group, the blank control group, and the drug treatment group, respectively. Finally, a cell viability curve was fitted using Graphpad Prism 5.0 software, and the EC50 value of the test compound for inhibiting necroptosis was calculated.

SMILES	EC50 [nM]
COC1CCN(CC(=O)Nc2nc3cc(-c4ccc5c(c4)c(C(=O)N[C@@H](C)c4ccc(F)cc4)cn5C)ccn3n2)CC1 [Compound 24]	< 1
C[C@H](NC(=O)c1cn(C)c2ccc(-c3ccn4nc(NC(=O)CN5CCOC[C@H]5C)nc4c3)cc12)c1ccc(F)cc1 [Compound 72]	< 1
Cn1cc(C(=O)Nc2nc3cc(-c4ccc5c(c4)c(C(=O)N4CCC[C@H]4c4ccc(F)cc4)cn5C)ccn3n2)cn1 [Compound 207]	< 1
COC(C)C(=O)Nc1nc2cc(-c3ccc4c(c3)c(-c3nncn3C(C)c3ccc(F)cc3)cn4C)ccn2n1 (stereo not drawn) [Compound 216]	10 to 100
CN1CC[C@@H](C(=O)Nc2nc3cc(-c4ccc5c(c4)c(C(=O)N[C@@H](CF)c4ccc(F)cc4)cn5C)ccn3n2)C1 [Compound 100]	< 1
C[C@H](NC(=O)c1cn(C)c2ccc(-c3ccn4nc(NC(=O)CN5CC6CC5CO6)nc4c3)cc12)c1ccc(Cl)cc1 (stereo partly drawn) [Compound 79]	< 1
CC(C(=O)Nc1cn(C)c2ccc(-c3ccn4nc(NC(=O)[C@H]5CCCO5)nc4c3)cc12)c1ccc(F)cc1 (stereo partly drawn) [Compound 178]	100 to 1000
C[C@H](NC(=O)c1cn(C)c2ccc(-c3ccn4nc(NC(=O)CNC5CCOC5)nc4c3)cc12)c1ccc(F)cc1 (stereo partly drawn) [Compound 77]	< 1
C[C@H](NC(=O)c1cn(C)c2ccc(-c3ccn4nc(NC(=O)CN5CCS(=O)(=O)CC5)nc4c3)cc12)c1ccc(F)cc1 [Compound 28]	1 to 10
C[C@H](NC(=O)c1cn(C)c2ccc(-c3ccn4nc(NC(=O)CN(C)CCO)nc4c3)cc12)c1ccc(F)cc1 [Compound 74]	< 1
Cn1cc(C(=O)N[C@@H](CF)c2ccc(F)cc2)c2cc(-c3ccn4nc(NC(=O)N5CCOCC5)nc4c3)ccc21 [Compound 103]	< 1
CCn1cc(C(=O)N[C@@H](C)c2ccc(F)cc2)c2cc(-c3ccn4nc(NC(=O)CN5CCOCC5)nc4c3)ccc21 [Compound 8]	< 1
Cn1cc(C(=O)N[C@H](c2ccc(F)cc2)C(F)F)c2cc(-c3ccn4nc(NC(=O)C5CC5)nc4c3)ccc21 [Compound 161]	< 1
C[C@H](NC(=O)c1cn(C)c2ccc(-c3ccn4nc(NC(=O)CC5CCCCC5)nc4c3)cc12)c1ccc(F)cc1 [Compound 13]	< 1
C[C@H](NC(=O)c1cn(C)c2ccc(-c3ccn4nc(NC(=O)CN5C6CC7CC(C6)C(O)C5C7)nc4c3)cc12)c1ccc(F)cc1 (stereo partly drawn) [Compound 59]	< 1
C[C@H](NC(=O)c1cn(C)c2ccc(-c3ccn4nc(NC(=O)CN(C)C)nc4c3)cc12)c1ccc(F)cc1 [Compound 40]	< 1
C[C@H](NC(=O)c1cn(C)c2ccc(-c3ccn4nc(N5CCOCC5)nc4c3)cc12)c1ccc(F)cc1 [Compound 219]	1 to 10
Cn1cc(C(=O)N[C@@H](CF)c2ccc(F)cc2)c2cc(-c3ccn4nc(NCC5CC5)nc4c3)ccc21 [Compound 108]	< 1
CN(C)CC(=O)Nc1nc2cc(-c3ccc4c(c3)c(C(=O)N[C@H]3CCc5ccc(F)cc53)cn4C)ccn2n1 [Compound 123]	1 to 10

SMILES	EC50 [nM]
Cn1cc(C2=NC(c3ccc(F)cc3)CO2)c2cc(-c3ccn4nc(NC(=O)C5CC5F)nc4c3)ccc21 (stereo not drawn) [Compound 211]	10 to 100
C[C@@H]1CN(CC(=O)Nc2nc3cc(-c4ccc5c(c4)c(C(=O)N[C@@H](C)c4ccc(Cl)cc4)cn5C)ccn3n2)C[C@H](C)O1 [Compound 85]	< 1
C[C@H](NC(=O)c1cn(C)c2ccc(-c3ccn4nc(NC(=O)CN5CCSCC5)nc4c3)cc12)c1ccc(Cl)cc1 [Compound 87]	< 1
Cn1cc(C(=O)N2CC(F)(F)CC2c2ccc(F)cc2)c2cc(-c3ccn4nc(NC(=O)N5CCOCC5)nc4c3)ccc21 (stereo not drawn) [Compound 160]	< 1
C[C@H](NC(=O)c1cn(C)c2ccc(-c3ccn4nc(NC(=O)CN5CCOCC5)nc4c3)cc12)c1ccco1 [Compound 88]	1 to 10
CC(=O)Nc1nc2cc(-c3ccc4c(c3)c(C(=O)N[C@@H]3C[C@H]3c3ccc(F)c(F)c3)cn4C)ccn2n1 [Compound 125]	1000 to 10000
Cn1cc(C(=O)Nc2nc3cc(-c4ccc5c(c4)c(C(=O)N[C@@H](CF)c4ccc(F)cc4)cn5C)ccn3n2)cn1 [Compound 111]	1 to 10
C[C@H](NC(=O)c1cn(C)c2ccc(-c3ccn4nc(NC(=O)CN5CCSCC5)nc4c3)cc12)c1ccc(F)cc1 [Compound 43]	< 1
Cn1cc(C(=O)N[C@@H](CF)c2cccc(F)c2)c2cc(-c3ccn4nc(NC(=O)[C@H]5CCCO5)nc4c3)ccc21 [Compound 183]	< 1
Cn1cc(C(=O)Nc2nc3cc(-c4ccc5c(c4)c(C(=O)N4CCOC[C@@H]4c4ccc(F)cc4)cn5C)ccn3n2)cn1 [Compound 149]	< 1
C[C@H](NC(=O)c1cn(C)c2ccc(-c3ccn4nc(NC(=O)CN5CCC(F)(F)CC5)nc4c3)cc12)c1ccc(Cl)cc1 [Compound 86]	< 1
COCC(=O)Nc1nc2cc(-c3ccc4c(c3)c(C(=O)N[C@@H](CF)c3ccc(F)cc3)cn4C)ccn2n1 [Compound 97]	< 1
C[C@H](NC(=O)c1cn(C)c2ccc(-c3ccn4nc(NC(=O)CN5CCC[C@H](O)C5)nc4c3)cc12)c1ccc(F)cc1 [Compound 7]	< 1
Cn1cc(C(=O)N[C@@H](CF)c2ccc(F)cc2)c2cc(-c3ccn4nc(NC(=O)[C@H]5CCCO5)nc4c3)ccc21 [Compound 104]	1000 to 10000
Cn1cc(C(=O)N2CC(F)CC2c2ccc(F)cc2)c2cc(-c3ccn4nc(NC(=O)C5CC5)nc4c3)ccc21 (stereo not drawn) [Compound 156]	< 1
CCOC(=O)C(=O)Nc1nc2cc(-c3ccc4c(c3)c(C(=O)N[C@@H](C)c3ccc(F)cc3)cn4C)ccn2n1 [Compound 10]	1 to 10
CC(C(=O)Nc1cn(C)c2ccc(-c3ccn4nc(NC(=O)C5CC5)nc4c3)cc12)c1ccc(F)cc1 (stereo not drawn) [Compound 177]	10 to 100
C[C@H](NC(=O)c1cn(C)c2ccc(-c3ccn4nc(NC(=O)CN5CCC6(CC5)OCCO6)nc4c3)cc12)c1ccc(F)cc1 [Compound 27]	< 1
Cn1cc(C(=O)N[C@@H](CF)c2ccc(F)cc2)c2cc(-c3ccn4nc(NC(=O)C5CC5)nc4c3)ccc21 [Compound 114]	< 1

SMILES	EC50 [nM]
C[C@H](NC(=O)c1cn(C)c2ccc(-c3ccn4nc(NC(=O)CN5CCOCC5C(=O)O)nc4c3)cc12)c1ccc(F)cc1 (stereo partly drawn) [Compound 33]	1000 to 10000
Cn1cc(C(=O)N[C@H]2CCCc3cc(F)ccc32)c2cc(-c3ccn4nc(NC(=O)CC#N)nc4c3)ccc21 [Compound 142]	10 to 100
Cn1cc(C(=O)N2N=CCC2c2ccc(F)cc2)c2cc(-c3ccn4nc(NC(=O)C5CC5)nc4c3)ccc21 (stereo not drawn) [Compound 170]	< 1
C[C@H](NC(=O)c1nn(C)c2ccc(-c3ccn4nc(NC(=O)C5CC5)nc4c3)cc12)c1ccc(F)cc1 [Compound 192]	< 1
C[C@H](NC(=O)c1cn(C)c2ccc(-c3ccn4nc(NC(=O)CN5CCC[C@@H](O)C5)nc4c3)cc12)c1ccc(F)cc1 [Compound 49]	1 to 10
C[C@H](NC(=O)c1cn(C)c2ccc(-c3ccn4nc(NC(=O)CN5C6CCC5COC6)nc4c3)cc12)c1ccc(F)cc1 [Compound 73]	< 1
CCN(CC)CC(=O)Nc1nc2cc(-c3ccc4c(c3)c(C(=O)N[C@@H](C)c3ccc(F)cc3)cn4C)ccn2n1 [Compound 36]	< 1
C[C@H](NC(=O)c1cn(C)c2ccc(-c3ccn4nc(NC(=O)CC(=O)O)nc4c3)cc12)c1ccc(F)cc1 [Compound 63]	1000 to 10000
C[C@H](NC(=O)c1cn(C)c2ccc(-c3ccn4nc(NC(=O)CN5CCCO5)nc4c3)cc12)c1ccc(F)cc1 [Compound 22]	1 to 10
CCn1cc(C(=O)N[C@@H](CF)c2ccc(F)cc2)c2cc(-c3ccn4nc(NC(=O)N5CCOCC5)nc4c3)ccc21 [Compound 200]	< 1
Cn1cc(C(=O)N[C@@H](CF)c2ccc(F)cc2)c2cc(-c3ccn4nc(NC(=O)C5CCOC5)nc4c3)ccc21 (stereo partly drawn) [Compound 109]	1 to 10
C[C@H](NC(=O)c1cn(C)c2ccc(-c3ccn4nc(NC(=O)CN5CCOC[C@@H]5CO)nc4c3)cc12)c1ccc(F)cc1 [Compound 35]	< 1
CC(C(=O)Nc1nc2cc(-c3ccc4c(c3)c(C(=O)N[C@@H](C)c3ccc(F)cc3)cn4C)ccn2n1)N1CC[C@H](O)C1 (stereo partly drawn) [Compound 1]	10 to 100
COCCOCCOCCOCC(=O)Nc1nc2cc(-c3ccc4c(c3)c(C(=O)N[C@@H](C)c3ccc(F)cc3)cn4C)ccn2n1 [Compound 26]	< 1
Cn1cc(C(=O)N[C@H]2CCCc3ccc(F)cc32)c2cc(-c3ccn4nc(NC(=O)[C@H]5CCCO5)nc4c3)ccc21 [Compound 146]	10 to 100
CC(=O)N1CCN(CC(=O)Nc2nc3cc(-c4ccc5c(c4)c(C(=O)N[C@@H](C)c4ccc(F)cc4)cn5C)ccn3n2)CC1 [Compound 53]	< 1
CO[C@@H](C)C(=O)Nc1nc2cc(-c3ccc4c(c3)c(C(=O)N[C@H](c3ccc(F)cc3)C(F)F)cn4C)ccn2n1 [Compound 165]	< 1
Cn1nc(C(=O)N[C@@H](CF)c2ccc(F)cc2)c2cc(-c3ccn4nc(NC(=O)C5CCOC5)nc4c3)ccc21 (stereo partly drawn) [Compound 188]	< 1
C[C@H](NC(=O)c1cn(C)c2ccc(-c3ccn4nc(NC(=O)CN5CCOCC5)nc4c3)cc12)C(C)(C)C [Compound 90]	1000 to 10000
